{"source": "patent US20090170810A1", "about": "“METHODS OF TREATMENT OF CARDIOVASCULAR AND CEREBROVASCULAR DISEASES WITH LOW MOLECULAR WEIGHT FUCOIDAN” (Beijing Century Biocom Pharmaceutical Technology Co. Ltd., priority 2006, published 2009)", "key": {"decapitated mice [1]": {"test_system": "decapitated mice", "experiment": "Breathing time and breathing frequency in decapitated mice", "format": "in vivo, ICR mice", "conditions": "2 mg/kg, tail i.v., decapitated 15 minutes after administration", "description": "(§1) ICR mice (equally divided between male and female) were divided randomly in a blank control group, a positive control group and dosage groups of sample A (200, 100, and 50 mg/kg) and sample B (400, 200, 100, 50 mg/kg). The mice in medical groups were administrated by tail intravenous injection, and the dosage was […]. The positive control group was administrated nimodipine (2 mg/kg) by tail intravenous injection. The model group was administrated normal salt. At 15 minutes after administration, the mice were decapitated by a pair of scissors. The mouth breathing time, breathing frequency and brain water content were recorded and compared with other groups."}, "decapitated mice [2]": {"test_system": "decapitated mice", "experiment": "Brain index and brain water content in decapitated mice", "format": "in vivo, ICR mice", "conditions": "2 mg/kg", "description": "as §1\nMeasurement of brain water content: whole brains were collected, after the wet weight was obtained, they were dried in an oven at 100° C. for 24 hours, the average value was taken to calculate brain water content: brain water content(%)=[…]. Brain index: brain index=brain wet weight (g)/body weight (g)×100%."}, "brain of ischemic mice": {"test_system": "brain of ischemic mice", "experiment": "Cerebral ischemia in mice with common carotid artery ligation and reperfusion (brain LDH, SOD)", "format": "in vivo", "conditions": "2 mg/kg", "description": "Experimental grouping: a control group and a model group (respectively administrating an equal volume of normal salt), a positive control group (nimodipine, 2 mg/kg), sample A groups (200, 100, and 50 mg/kg), and sample B groups (200, 100, and 50 mg/kg), the injection dosage being […].\nAnimal model setup: the grouped mice were respectively administrated test substance, nimodipine or normal salt by tail intravenous injection. After 15 minutes, the mice were anesthetized with 3.5% chloral hydrate, fixed in the back. The right and left common carotid artery and vagus nerve were exposed, and 4-0 suture was inserted under the bilateral carotid arteries. The line was tightened to block blood flow for 5 minutes. Then the line was loosened to make the blood reperfusion for 10 minutes. The operation was repeated three times, and an ischemia-reperfusion model in mice was established. After the last reperfusion, the mice were decapitated and brain collected. In the control group, only the bilateral carotid arteries were exposed, without line being inserted."}}, "data": [{"smiles": "COCCOC(=O)C1=C(C)NC(C)=C(C(=O)OC(C)C)C1c1cccc([N+](=O)[O-])c1", "note": "(stereo not drawn) [Nimodipine, nimodipine]", "values": [{"measurement": "Breathing frequency (times)", "setting": "decapitated mice [1]", "value": "17.0 ± 3.2", "unit": "times"}, {"measurement": "Breathing time", "setting": "decapitated mice [1]", "value": "23.8 ± 3.2", "unit": "s"}, {"measurement": "Brain index (%)", "setting": "decapitated mice [2]", "value": "1.40 ± 0.14", "unit": "%"}, {"measurement": "Brain water content (%)", "setting": "decapitated mice [2]", "value": "75.1 ± 0.9", "unit": "%"}, {"measurement": "LDH (U/mg)", "setting": "brain of ischemic mice", "value": "11.3 ± 6.6", "unit": "U/mg"}, {"measurement": "SOD (U/mg)", "setting": "brain of ischemic mice", "value": "144.77 ± 21.61", "unit": "U/mg"}]}]}
